Common to all, as to assay type: cell-based
The subject of assay [1] is Trypanosoma brucei Lister 427 VSG221 with APOL1 G1 recombinant protein. The experiment in a line: APOL1 G1 trypanosome cell rescue assay (Example B5). Conditions: Trypanosoma brucei, 20 h, read-out: APOL1 G1 Trypanosome Rescue EC50, Trypanosoma brucei Lister 427 VSG221 with APOL1 G1 recombinant protein, 20 hours, CellTiter-Glo; geometric mean of at least 2 assay runs; † = single assay run. The gist of the method:
(§1)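 Viability read by CellTiter-Glo luminescence after 20 h co-incubation (37° C, 5% CO2) of 250 trypanosomes/well in modified HMI-9 with test compound (duplicate 11-point, 2-fold dilutions, 0.4% DMSO) and APOL1 protein, […]. Protein: mature residues 28-398, E. coli inclusion-body refolded, tag cleaved, in DDM.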
A general note: In ATP-based viability assays light output follows the ATP content of the culture.

Assay [2] concerns HEK293 cells overexpressing APOL1 G2. The experiment in a line: APOL1 G2 HEK293 cell rescue assay (reversal of cell death caused by overexpression of APOL1). The settings on record: Homo sapiens, HEK293, HEK293 overexpressing APOL1 G2; geometric mean of at least 2 assay runs; † = single assay run. The gist of the method:
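Each compound tested in duplicate wells on one plate per run, with values usually the geometric mean across at least two runs on different days, occasionally from one run only. Read-out: concentration giving half-maximal rescue of APOL1 G2 overexpression-induced death of HEK293 cells.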

Assay [3] has as its system Trypanosoma brucei Lister 427 VSG221 with APOL1 G0 recombinant protein. Description: APOL1 G0 trypanosome cell rescue assay (Example B5). Conditions: Trypanosoma brucei, 20 h, read-out: APOL1 G0 Trypanosome Rescue EC50, Trypanosoma brucei Lister 427 VSG221 with APOL1 G0 recombinant protein, 20 hours, CellTiter-Glo; geometric mean of at least 2 assay runs; † = single assay run. An outline of the steps:
as §1

The values that follow come from US12344610B2, “APOL1 inhibitors and methods of use” (Maze Therapeutics, Inc., priority 2022, dated 2025).

pEC50: −log10 of the molar value.

One may read the pEC50 as −log10 of the EC50, conventionally taken in molar units. As for `CN=S(C)(=O)c1ccc(OCCN2CCC3(CC2)C(=O)Nc2ccc(Cl)cc23)cc1` (stereo not drawn) [Compound 147, 5-chloro-1′-(2-{4-[methyl(methylimino)oxo-λ^6-sulfanyl]phenoxy}ethyl)-1,2-dihydrospiro[indole-3,4′-piperidin]-2-one], the pEC50 in assay [1] was 6.64; in assay [2] it was 7.20; in assay [3] it was 6.81.
With `CN=S(C)(=O)c1ccc(OCCN2CCC3(CC2)C(=O)Nc2ccc(C#N)cc23)cc1` (stereo not drawn) [Compound 150, 1′-(2-{4-[methyl(methylimino)oxo-λ^6-sulfanyl]phenoxy}ethyl)-2-oxo-1,2-dihydrospiro[indole-3,4′-piperidine]-5-carbonitrile], the pEC50 is 5.64 in assay [1], 6.64 in assay [2] and 5.84 in assay [3].
Regarding `CN1CCc2cc(OCCN3CCC4(CC3)C(=O)Nc3ccc(Cl)cc34)ccc2S1(=O)=O` [Compound 153, 6-(2-{5-chloro-2-oxo-1,2-dihydrospiro[indole-3,4′-piperidin]-1′-yl}ethoxy)-2-methyl-3,4-dihydro-2H-1λ^6,2-benzothiazine-1,1-dione], the values for the pEC50 in assay [1], in assay [2] and in assay [3] were 7.18, 7.66 and 7.28, respectively.
The like results for `CN1CCc2cc(OCCN3CCC4(CC3)C(=O)Nc3ccc(C#N)cc34)ccc2S1(=O)=O` [Compound 154, 1′-{2-[(2-methyl-1,1-dioxo-3,4-dihydro-2H-1λ^6,2-benzothiazin-6-yl)oxy]ethyl}-2-oxo-1,2-dihydrospiro[indole-3,4′-piperidine]-5-carbonitrile] were, in that order, 6.24, 7.17 and 6.48.
On to `CS(=O)(=O)c1ccc(OCCN2CCC3(CC2)C(=O)Nc2ccc(Cl)cc23)cc1Cl` [Compound 155, 5-chloro-1′-[2-(3-chloro-4-methanesulfonylphenoxy)ethyl]-1,2-dihydrospiro[indole-3,4′-piperidin]-2-one], for which the pEC50 in assay [1] was 7.44; in assay [2], 7.58; in assay [3] it was 7.59.
Turning to `CS(=O)(=O)c1ccc(OCCN2CCC3(CC2)C(=O)Nc2ccc(C#N)cc23)cc1Cl` [Compound 156, 1′-[2-(3-chloro-4-methanesulfonylphenoxy)ethyl]-2-oxo-1,2-dihydrospiro[indole-3,4′-piperidine]-5-carbonitrile], the results for the pEC50 in assay [1], in assay [2] and in assay [3] were 6.81, 7.25 and 7.02, respectively.
In the case of `CC(C)(C#N)c1ccc(OCCN2CCC3(CC2)C(=O)Nc2ccc(C#N)cc23)cc1` [Compound 157, 1′-{2-[4-(1-cyano-1-methylethyl)phenoxy]ethyl}-2-oxo-1,2-dihydrospiro[indole-3,4′-piperidine]-5-carbonitrile], the pEC50 is 6.85 in assay [1], 7.30 in assay [2] and 6.96 in assay [3].
As to `CC1(S(=O)(=O)c2ccc(OCCN3CCC4(CC3)C(=O)Nc3ccc(Cl)cc34)cn2)COC1` [Compound 158, 5-chloro-1′-[2-({6-[(3-methyloxetan-3-yl)sulfonyl]pyridin-3-yl}oxy)ethyl]-1,2-dihydrospiro[indole-3,4′-piperidin]-2-one], the figures for the pEC50 in assay [1], in assay [2] and in assay [3] were 6.85, 7.18 and 7.03, respectively.
For the compound `CS(=O)(=O)C1(c2ccc(OCCN3CCC4(CC3)C(=O)N(CCO)c3ccc(Cl)cc34)cc2)COC1` [Compound 160, 5-chloro-1-(2-hydroxyethyl)-1′-{2-[4-(3-methanesulfonyloxetan-3-yl)phenoxy]ethyl}-1,2-dihydrospiro[indole-3,4′-piperidin]-2-one], the pEC50 in assay [1] was 6.81; in assay [2], 7.12; in assay [3], 6.96.
For `Cc1cc(OCCN2CCC3(CC2)C(=O)Nc2ccc(Cl)cc23)cnc1S(C)(=O)=O` [Compound 161, 5-chloro-1′-{2-[(6-methanesulfonyl-5-methylpyridin-3-yl)oxy]ethyl}-1,2-dihydrospiro[indole-3,4′-piperidin]-2-one], in that order: 6.97, 7.33 and 7.12.
For the compound `O=C1CCc2cc(OCCN3CCC4(CC3)C(=O)Nc3ccc(Cl)cc34)ccc2N1CCO` [Compound 162, 5-chloro-1′-(2-{[1-(2-hydroxyethyl)-2-oxo-1,2,3,4-tetrahydroquinolin-6-yl]oxy}ethyl)-1,2-dihydrospiro[indole-3,4′-piperidin]-2-one], the pEC50 in assay [1] was 6.85; in assay [2], 7.24; in assay [3] it was 6.84.
For the compound `CS(=O)(=O)c1ccc(OCCN2CCC3(CC2)C(=O)Nc2ccc(Cl)cc23)cc1OC(F)F` [Compound 163, 5-chloro-1′-{2-[3-(difluoromethoxy)-4-methanesulfonylphenoxy]ethyl}-1,2-dihydrospiro[indole-3,4′-piperidin]-2-one], the pEC50 in assay [1] was 7.05; in assay [2] it was 7.61; in assay [3], 7.25.
Turning to `CS(=O)(=O)c1ccc(OCCN2CCC3(CC2)C(=O)Nc2ccc(C#N)cc23)cc1OC(F)F` [Compound 164, 1′-{2-[3-(difluoromethoxy)-4-methanesulfonylphenoxy]ethyl}-2-oxo-1,2-dihydrospiro[indole-3,4′-piperidine]-5-carbonitrile], the pEC50 in assay [1] was 6.46; in assay [2], 6.99; in assay [3], 6.68.
As to `CS(=O)(=O)C1(c2ccc(OCCN3CCC4(CC3)C(=O)Nc3ccc(Cl)cc34)cc2C(F)(F)F)COC1` [Compound 165, 5-chloro-1′-{2-[4-(3-methanesulfonyloxetan-3-yl)-3-(trifluoromethyl)phenoxy]ethyl}-1,2-dihydrospiro[indole-3,4′-piperidin]-2-one], the pEC50 in assay [1] is 7.47; in assay [2], 7.67; in assay [3], 7.54.
As to `CS(=O)(=O)C1(c2ccc(OCCN3CCC4(CC3)C(=O)Nc3ccc(C#N)cc34)cc2C(F)(F)F)COC1` [Compound 166, 1′-{2-[4-(3-methanesulfonyloxetan-3-yl)-3-(trifluoromethyl)phenoxy]ethyl}-2-oxo-1,2-dihydrospiro[indole-3,4′-piperidine]-5-carbonitrile], the pEC50 was 6.95 in assay [1], 7.25 in assay [2] and 7.03 in assay [3].
`O=C1Nc2ccc(Cl)cc2C12CCN(CCOc1ccc3c(c1)CCNS3(=O)=O)CC2` [Compound 167, 6-(2-{5-chloro-2-oxo-1,2-dihydrospiro[indole-3,4′-piperidin]-1′-yl}ethoxy)-3,4-dihydro-2H-1λ^6,2-benzothiazine-1,1-dione]: the results for the pEC50 in assay [1], in assay [2] and in assay [3] were 6.83, 7.37 and 7.01, respectively.
`N#Cc1ccc2c(c1)C1(CCN(CCOc3ccc4c(c3)CCNS4(=O)=O)CC1)C(=O)N2` [Compound 168, 1′-{2-[(1,1-dioxo-3,4-dihydro-2H-1λ^6,2-benzothiazin-6-yl)oxy]ethyl}-2-oxo-1,2-dihydrospiro[indole-3,4′-piperidine]-5-carbonitrile]: the figures for the pEC50 in assay [1], in assay [2] and in assay [3] were 6.20, 6.46 and 6.30, respectively.
With `CN1C(=O)Cc2cc(OCCN3CCC4(CC3)C(=O)Nc3ccc(C#N)cc34)cc(F)c21` [Compound 169, 1′-{2-[(7-fluoro-1-methyl-2-oxo-2,3-dihydro-1H-indol-5-yl)oxy]ethyl}-2-oxo-1,2-dihydrospiro[indole-3,4′-piperidine]-5-carbonitrile], the pEC50 was 6.04 in assay [1], 6.61 in assay [2] and 6.21 in assay [3].
For `CC1(Oc2ncc(OCCN3CCC4(CC3)C(=O)Nc3ccc(Cl)cc34)cn2)COC1` [Compound 172, 5-chloro-1′-[2-({2-[(3-methyloxetan-3-yl)oxy]pyrimidin-5-yl}oxy)ethyl]-1,2-dihydrospiro[indole-3,4′-piperidin]-2-one], in that order: 6.45, 7.00 and 6.61.
The like results for `CCS(=O)(=O)C1(c2ccc(OCCN3CCC4(CC3)C(=O)Nc3ccc(C#N)cc34)cc2)COC1` [Compound 174, 1′-(2-{4-[3-(ethanesulfonyl)oxetan-3-yl]phenoxy}ethyl)-2-oxo-1,2-dihydrospiro[indole-3,4′-piperidine]-5-carbonitrile] were, in that order, 6.32, 6.98 and 6.40.
With `CS(=O)(=O)C1(c2ccc(OCCN3CCC4(CC3)C(=O)Nc3ccc(Cl)cc34)cc2)CCC1` [Compound 180, 5-chloro-1′-{2-[4-(1-methanesulfonylcyclobutyl)phenoxy]ethyl}-1,2-dihydrospiro[indole-3,4′-piperidin]-2-one], the results for the pEC50 in assay [1], in assay [2] and in assay [3] were 7.32, 7.66 and 7.45, respectively.
In the case of `CS(=O)(=O)C1(c2ccc(OCCN3CCC4(CC3)C(=O)Nc3ccc(C#N)cc34)cc2)CCC1` [Compound 181, 1′-{2-[4-(1-methanesulfonylcyclobutyl)phenoxy]ethyl}-2-oxo-1,2-dihydrospiro[indole-3,4′-piperidine]-5-carbonitrile], the pEC50 in assay [1] was 6.63; in assay [2] it was 7.35; in assay [3], 6.80.
